Measurements reported in US20230356105A1, “TETRAAZADODECANE BASED CHELATING AGENTS FOR SEPARATION OF RARE EARTH ELEMENTS AND METHOD THEREFOR” (Ustav Organicke Chemie a Biochemie AV CR V.V.I., priority 2020, published 2023).
Values joined by “and” are separate entries in the source; they are usually repeats but may differ in a detail not shown here. Equal entries are not always repeated. Where two headings read alike, the source gives them in different places.

How the values were obtained:
Assay type in all cases: physicochemical
[1] = Separation of industrially relevant binary mixtures by precipitation using L1, L2 and L3 (Example 10); conditions: supernatant
Experimental: Analogous to Example 7), three sets of reaction mixtures with two metals and either compound L1, L2, or L3 were prepared in a 96-well plate with the following differences: each well was equipped with one PTFE-coated magnetic stir bar, the well plate was sealed with a silicon cover, and the reaction mixtures were stirred on a magnetic stirrer for 2 days at room temperature. Analogous to Example 7), the well plate was then centrifuged and concentrations of the metals were determined using ICP-OES. […] It is evident from the results that certain degrees of enrichment are achieved for very different combinations of metals, and that ligands L1, L2, and L3 have different selectivities for given combinations of metals.

[2] = Separation of Y/Tb mixture by repeated precipitation using L2 (Example 14); conditions: for Precipitate concentration [mM] Tb / Precipitate concentration [mM] Y: dissolved to 200 μL
Experimental: The experiment was conducted according to Example 11) with 9 identical reaction mixtures containing Y, Tb, and compound L2. The experimental procedure was identical to that of Example 11). The resulting absolute concentrations of both metals in the supernatants and precipitates, as well as calculated values of separation factor Y/Tb according to the formula from Example 11), are summarized in Table 8. The average separation factor value was 3.34.

[3] = Use of additives to improve separation of Nd/Dy mixture by precipitation with L5 (Example 18); conditions: 11 mM L5
Experimental: Stock solutions were pipetted into plastic 1×1 cm cuvettes to prepare reaction mixtures with concentrations as follows: • 1. […] 5 mM NdCl3 • 3. 5 mM DyCl3 • 4. 500 mM MOPS pH=7 • 5. the additive of interest, in a variable concentration; if possible, stock solutions were prepared from Na^+ salt forms of the compound; if not, the stock solutions were titrated by NaOH/HCl to pH=7 prior to addition (see Table 12 for additives and concentrations)
These aqueous reaction mixtures, each prepared to a total volume of 2.0 mL with the addition of water as necessary, were mixed by the use of a PTFE-coated stir bar on a magnetic stirrer. The cuvettes were sealed with transparent tape to prevent evaporation overnight. The reaction mixtures were stirred for 18 hours, at which point 500 μL aliquots of each reaction mixture were transferred into plastic 2 mL Eppendorf tubes and centrifuged. The supernatants were carefully pipetted out and transferred to a new set of tubes. The precipitate was dissolved by addition of 500 μL 1M HCl. The absolute concentration of Nd and Dy in each supernatant and precipitate was determined by ICP-OES.

[4] = Removal of additive from remaining solution after precipitation by ultrafiltration (Example 25)
[5] = Separation of Tb/Lu mixture by precipitation using L4 (Example 16); conditions: for Precipitate concentration [mM] Lu / Precipitate concentration [mM] Tb: dissolved to 150 μL
Experimental: The experiment was conducted according to Example 24, with 3 identical reaction mixtures containing Tb, Lu, and compound L4. The experimental procedure was identical to that of Example 24 with the difference being that the dissolution of the precipitate in 100 μL, 1 M HCl was achieved within several minutes. The resulting absolute concentrations of both metals in the supernatants and precipitates, as well as calculated values of the separation factor […] according to formula from Example 11), are summarized in Table 10. […] The average separation factor value was 27.

[6] = group A, 1st precipitation, mean
[7] = group B, 2nd precipitation, mean

O=C(O)CN1CCNCCN(CC(=O)O)CCN(Cc2cc([N+](=O)[O-])ccc2O)CC1 [L2, 2,2′(4-(2-hydroxy-5-nitrobenzyl)-1,4,7,10-tetraazacyclododecane-1,7-diyl)Diacetic Acid]
[mM] M1 ([1]; M1/M2=Eu/Y): 1.363 mM | [mM] M2 ([1]; M1/M2=Eu/Y): 2.814 mM | [mM] M1 ([1]; M1/M2=La/Ce): 0.175 mM | [mM] M2 ([1]; M1/M2=La/Ce): 0.158 mM | [mM] M1 ([1]; M1/M2=Nd/Ce): 0.425 mM | [mM] M2 ([1]; M1/M2=Nd/Ce): 0.779 mM | [mM] M1 ([1]; M1/M2=Nd/Dy): 1.757 mM | [mM] M2 ([1]; M1/M2=Nd/Dy): 1.970 mM | [mM] M1 ([1]; M1/M2=Nd/La): 0.263 mM | [mM] M2 ([1]; M1/M2=Nd/La): 0.128 mM | [mM] M1 ([1]; M1/M2=Nd/Pr): 2.303 mM | [mM] M2 ([1]; M1/M2=Nd/Pr): 2.352 mM | [mM] M1 ([1]; M1/M2=Nd/Tb): 1.532 mM | [mM] M2 ([1]; M1/M2=Nd/Tb): 1.438 mM | [mM] M1 ([1]; M1/M2=Pr/Ce): 0.162 mM | [mM] M2 ([1]; M1/M2=Pr/Ce): 0.171 mM | [mM] M1 ([1]; M1/M2=Pr/Dy): 2.417 mM | [mM] M2 ([1]; M1/M2=Pr/Dy): 2.422 mM | [mM] M1 ([1]; M1/M2=Pr/La): 0.172 mM | [mM] M2 ([1]; M1/M2=Pr/La): 0.163 mM | [mM] M1 ([1]; M1/M2=Tb/Dy): 1.054 mM | [mM] M2 ([1]; M1/M2=Tb/Dy): 2.708 mM | [mM] M1 ([1]; M1/M2=Tb/Eu): 1.182 mM | [mM] M2 ([1]; M1/M2=Tb/Eu): 0.956 mM | [mM] M1 ([1]; M1/M2=Tb/Pr): 1.945 mM | [mM] M2 ([1]; M1/M2=Tb/Pr): 2.156 mM | [mM] M1 ([1]; M1/M2=Tb/Y): 1.615 mM | [mM] M2 ([1]; M1/M2=Tb/Y): 2.812 mM | Supernatant concentration [mM] Tb ([2]; group A, 1st precipitation): 1.70 mM and 1.85 mM and 1.74 mM | Supernatant concentration [mM] Y ([2]; group A, 1st precipitation): 4.25 mM and 4.36 mM and 4.12 mM | Precipitate concentration [mM] Tb ([2]; group A, 1st precipitation): 8.05 mM and 7.82 mM and 7.70 mM | Precipitate concentration [mM] Y ([2]; group A, 1st precipitation): 5.45 mM and 5.23 mM and 5.52 mM | Precipitate concentration [mM] Tb [2, 6]: 7.86 mM | Precipitate concentration [mM] Y [2, 6]: 5.40 mM | Supernatant concentration [mM] Tb [2, 6]: 1.76 mM | Supernatant concentration [mM] Y [2, 6]: 4.24 mM | Supernatant concentration [mM] Tb ([2]; group B, 2nd precipitation): 0.79 mM and 1.15 mM and 0.97 mM | Supernatant concentration [mM] Y ([2]; group B, 2nd precipitation): 1.42 mM and 1.52 mM and 1.48 mM | Precipitate concentration [mM] Tb ([2]; group B, 2nd precipitation): 6.95 mM and 5.71 mM and 6.60 mM | Precipitate concentration [mM] Y ([2]; group B, 2nd precipitation): 3.87 mM and 2.86 mM and 3.57 mM | Precipitate concentration [mM] Tb [2, 7]: 6.42 mM | Precipitate concentration [mM] Y [2, 7]: 3.43 mM | Supernatant concentration [mM] Y [2, 7]: 1.47 mM

CC(=O)O [acetate]
Precipitate concentration [mM] Dy ([3]; additive 50 mM): 2.43 mM | Precipitate concentration [mM] Nd ([3]; additive 50 mM): 4.97 mM | Supernatant concentration [mM] Dy ([3]; additive 50 mM): 3.05 mM | Supernatant concentration [mM] Nd ([3]; additive 50 mM): 0.33 mM | Precipitate concentration [mM] Dy ([3]; additive 100 mM): 1.74 mM | Precipitate concentration [mM] Nd ([3]; additive 100 mM): 4.85 mM | Supernatant concentration [mM] Dy ([3]; additive 100 mM): 3.74 mM | Supernatant concentration [mM] Nd ([3]; additive 100 mM): 0.30 mM | Precipitate concentration [mM] Dy ([3]; additive 250 mM): 1.05 mM | Precipitate concentration [mM] Nd ([3]; additive 250 mM): 4.04 mM | Supernatant concentration [mM] Dy ([3]; additive 250 mM): 4.37 mM | Supernatant concentration [mM] Nd ([3]; additive 250 mM): 1.17 mM | Precipitate concentration [mM] Dy ([3]; additive 500 mM): 0.49 mM | Precipitate concentration [mM] Nd ([3]; additive 500 mM): 0.52 mM | Supernatant concentration [mM] Dy ([3]; additive 500 mM): 4.69 mM | Supernatant concentration [mM] Nd ([3]; additive 500 mM): 4.62 mM | % of initial [additive] in filtrate ([4]; initial [additive] 76 mM): 83%

CC(C)(O)C(=O)O [α-HIBA, alpha-hydroxyisobutyric acid]
Precipitate concentration [mM] Dy ([3]; additive 5 mM): 2.59 mM | Precipitate concentration [mM] Nd ([3]; additive 5 mM): 4.32 mM | Supernatant concentration [mM] Dy ([3]; additive 5 mM): 1.55 mM | Supernatant concentration [mM] Nd ([3]; additive 5 mM): 0.10 mM | Precipitate concentration [mM] Dy ([3]; additive 10 mM): 1.50 mM | Precipitate concentration [mM] Nd ([3]; additive 10 mM): 4.03 mM | Supernatant concentration [mM] Dy ([3]; additive 10 mM): 3.03 mM | Supernatant concentration [mM] Nd ([3]; additive 10 mM): 0.19 mM | Precipitate concentration [mM] Dy ([3]; additive 15 mM): 1.18 mM | Precipitate concentration [mM] Nd ([3]; additive 15 mM): 4.33 mM | Supernatant concentration [mM] Dy ([3]; additive 15 mM): 3.37 mM | Supernatant concentration [mM] Nd ([3]; additive 15 mM): 0.33 mM | Precipitate concentration [mM] Dy ([3]; additive 20 mM): 0.81 mM | Precipitate concentration [mM] Nd ([3]; additive 20 mM): 3.78 mM | Supernatant concentration [mM] Dy ([3]; additive 20 mM): 3.69 mM | Supernatant concentration [mM] Nd ([3]; additive 20 mM): 0.60 mM | % of initial [additive] in filtrate ([4]; initial [additive] 30.4 mM): 3%

O=C(O)c1ccccc1 [benzoic acid]
Precipitate concentration [mM] Dy ([3]; additive 20 mM): 3.83 mM | Precipitate concentration [mM] Nd ([3]; additive 20 mM): 4.94 mM | Supernatant concentration [mM] Dy ([3]; additive 20 mM): 1.09 mM | Supernatant concentration [mM] Nd ([3]; additive 20 mM): 0.13 mM | Precipitate concentration [mM] Dy ([3]; additive 50 mM): 1.81 mM | Precipitate concentration [mM] Nd ([3]; additive 50 mM): 4.66 mM | Supernatant concentration [mM] Dy ([3]; additive 50 mM): 2.69 mM | Supernatant concentration [mM] Nd ([3]; additive 50 mM): 0.10 mM | Precipitate concentration [mM] Dy ([3]; additive 100 mM): 0.97 mM | Precipitate concentration [mM] Nd ([3]; additive 100 mM): 4.60 mM | Supernatant concentration [mM] Dy ([3]; additive 100 mM): 4.03 mM | Supernatant concentration [mM] Nd ([3]; additive 100 mM): 0.49 mM | Precipitate concentration [mM] Dy ([3]; additive 150 mM): 0.68 mM | Precipitate concentration [mM] Nd ([3]; additive 150 mM): 3.96 mM | Supernatant concentration [mM] Dy ([3]; additive 150 mM): 4.34 mM | Supernatant concentration [mM] Nd ([3]; additive 150 mM): 1.03 mM | Precipitate concentration [mM] Dy ([3]; additive 200 mM): 0.53 mM | Precipitate concentration [mM] Nd ([3]; additive 200 mM): 1.65 mM | Supernatant concentration [mM] Dy ([3]; additive 200 mM): 4.20 mM | Supernatant concentration [mM] Nd ([3]; additive 200 mM): 2.89 mM | Precipitate concentration [mM] Dy ([3]; additive 250 mM): 0 mM | Precipitate concentration [mM] Nd ([3]; additive 250 mM): 0 mM | Supernatant concentration [mM] Dy ([3]; additive 250 mM): 5 mM | Supernatant concentration [mM] Nd ([3]; additive 250 mM): 5 mM | % of initial [additive] in filtrate ([4]; initial [additive] 76 mM): 43%

O=C(O)CN1CCN(CC(=O)O)CCN(Cc2ccc3ccccc3c2)CCN(CC(=O)O)CC1 [L4, 2,2′,2″-(10-(naphthalene-2-ylmethyl)-1,4,7,10-tetraazacyklododekane-1,4,7-triyl)triacetic acid]
Supernatant concentration [mM] Lu [5]: 4.26 mM and 4.07 mM and 4.18 mM | Supernatant concentration [mM] Tb [5]: 1.08 mM and 0.93 mM and 1.19 mM | Precipitate concentration [mM] Lu [5]: 0.51 mM and 0.61 mM and 0.47 mM | Precipitate concentration [mM] Tb [5]: 3.74 mM and 3.73 mM and 3.28 mM | Precipitate concentration [mM] Lu ([5]; mean): 0.53 mM | Precipitate concentration [mM] Tb ([5]; mean): 3.59 mM | Supernatant concentration [mM] Lu ([5]; mean): 4.17 mM | Supernatant concentration [mM] Tb ([5]; mean): 1.07 mM
